Results published in US6274715A, “Tricyclic erythromycin derivatives” (priority 1997, dated 2001).
Converted amounts (≈) assume the structure as drawn.

Legend:
Type in all cases: cell-based
[1] = test system: STAPHYLOCOCCUS AUREUS ATCC 6538P; test: In vitro antibacterial activity, MIC, BHI agar dilution; details: S. aureus ATCC 6538P, 35-37° C., 20 to 24 hours, unit assumed
[2] = test system: STAPHYLOCOCCUS AUREUS A5177; test: as above; details: S. aureus A5177, unit assumed
[3] = test system: STAPHYLOCOCCUS AUREUS A-5278; test: as above; details: S. aureus A-5278, unit assumed
[4] = test system: STAPHYLOCOCCUS AUREUS CMX 642A; test: as above; details: S. aureus CMX 642A, unit assumed
[5] = test system: STAPHYLOCOCCUS AUREUS NCTC10649M; test: as above; details: S. aureus NCTC10649M, unit assumed
[6] = test system: STAPHYLOCOCCUS AUREUS CMX 553; test: as above; details: S. aureus CMX 553, unit assumed
[7] = test system: STAPHYLOCOCCUS AUREUS 1775; test: as above; details: S. aureus 1775, unit assumed
[8] = test system: STAPHYLOCOCCUS EPIDERMIDIS 3519; details: S. epidermidis 3519; BHI agar; unit assumed
[9] = test system: EN[…] ATCC 8043; test: In vitro antibacterial activity, MIC, BHI agar dilution; details: E. faecium ATCC 8043, unit assumed
Procedure, shortened: (§1)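 MIC was read visually as the lowest drug concentration showing no growth, a slight haze or sparsely isolated colonies relative to a compound-free BHI plate. Plates held serial aqueous dilutions in BHI agar, were spot-inoculated with 1:100 (or 1:10) culture dilutions and incubated 20 to 24 hours at 35-37° C.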

[10] = test system: M[…] ATCC 4698; test: as above; details: M. luteus ATCC 4698, unit assumed
Procedure, shortened: as §1

[11] = test system: M[…] ATCC 9341; test: as above; details: M. luteus ATCC 9341, unit assumed
Procedure, shortened: as §1

[12] = test system: STR[…] 508; test: as above; details: S. agalactiae CMX 508, unit assumed
Procedure, shortened: as §1

[13] = test system: STREPTOCOCCUS BOVIS A-5169; test: as above; details: S. bovis A-5169, unit assumed
[14] = test system: STREPTOCOCCUS PYOGENES EES61; test: as above; details: S. pyogenes EES61, unit assumed
[15] = test system: STREPTOCOCCUS PYOGENES 930; test: as above; details: S. pyogenes 930, unit assumed
[16] = test system: STREPTOCOCCUS PYOGENES PIU 2548; test: as above; details: S. pyogenes PIU 2548, unit assumed
[17] = test system: ESCHERICHIA COLI SS; test: as above; details: E. coli SS, unit assumed
[18] = test system: ESCHERICHIA COLI DC-2; test: as above; details: E. coli DC-2, unit assumed
[19] = test system: ESCHERICHIA COLI H560; test: as above; details: E. coli H560, unit assumed
[20] = test system: ESCHERICHIA COLI KNK 437; details: E. coli KNK 437; BHI agar; unit assumed
[21] = test system: ENTEROBACTER AEROGENES ATCC 13048; test: In vitro antibacterial activity, MIC, BHI agar dilution; details: E. aerogenes ATCC 13048, unit assumed
[22] = test system: KLEBSIELLA PNEUMONIAE ATCC 8045; test: as above; details: K. pneumoniae ATCC 8045, unit assumed
[23] = test system: PROVIDENCIA STUARTII CMX 640; details: P. stuartii CMX 640; BHI agar; unit assumed
[24] = test system: PSEUDOMONAS AERUGINOSA BMH10; test: In vitro antibacterial activity, MIC, BHI agar dilution; details: P. aeruginosa BMH10, unit assumed
[25] = test system: PSEUDOMONAS AERUGINOSA 5007; test: as above; details: P. aeruginosa 5007, unit assumed
[26] = test system: PSEUDOMONAS AERUGINOSA K799/WT; test: as above; details: P. aeruginosa K799/WT, unit assumed
[27] = test system: PSEUDOMONAS AERUGINOSA K799/61; test: as above; details: P. aeruginosa K799/61, unit assumed
[28] = test system: PSEUDOMONAS CEPACIA 296I; test: as above; details: P. cepacia 296I, unit assumed
[29] = test system: ACINETOBACTER CALCOACETICUS CMX 669; test: as above; details: A. calcoaceticus CMX 669, unit assumed
[30] = test system: PSEUDOMONAS AERUGINOSA DPHD-5263; test: as above; details: P. aeruginosa DPHD-5263, unit assumed
[31] = test system: PSEUDOMONAS AERUGINOSA DPHD-2862; test: as above; details: P. aeruginosa DPHD-2862, unit assumed
[32] = test system: CANDIDA ALBICANS CCH 442; test: as above; details: C. albicans CCH 442, unit assumed
[33] = test system: MYCOBACTERIUM SMEGMATIS ATCC 114; test: as above; details: M. smegmatis ATCC 114, unit assumed
[34] = test system: ESCHERICHIA COLI JUHL; details: E. coli JUHL; BHI agar; unit assumed

`CC[C@H]1OC(=O)[C@H](C)C(=O)[C@H](C)[C@@H](O[C@@H]2O[C@H](C)C[C@H](N(C)C)[C@H]2O)[C@](C)(OC)C[C@@H](C)C2=NC[C@H](Cc3ccc(OCc4ccccc4)cc3)N3C(=O)O[C@@]1(C)[C@H]3[C@H]2C` [Example 64] showed an MIC [1] of 0.39 µg/mL (≈ 0.468 µM), an MIC [2] of 0.2 µg/mL (≈ 0.24 µM) and an MIC [3] of 50 µg/mL (≈ 59.9 µM). For the same molecule, the MIC [4] was 0.39 µg/mL (≈ 0.468 µM), the MIC [5] was 0.2 µg/mL (≈ 0.24 µM) and the MIC [6] was 0.2 µg/mL (≈ 0.24 µM). The MIC [7] was 50 µg/mL (≈ 59.9 µM), the MIC [8] was 0.39 µg/mL (≈ 0.468 µM) and the MIC [9] was 0.2 µg/mL (≈ 0.24 µM). For the same molecule, the MIC [10] was 0.78 µg/mL (≈ 0.935 µM), the MIC [11] was 0.1 µg/mL (≈ 0.12 µM) and the MIC [12] was 0.1 µg/mL (≈ 0.12 µM). It also gave an MIC [13] of 0.1 µg/mL (≈ 0.12 µM), an MIC [14] of 0.05 µg/mL (≈ 0.0599 µM) and an MIC [15] of 25 µg/mL (≈ 30 µM). For the same molecule, the MIC [16] was 0.78 µg/mL (≈ 0.935 µM), the MIC [17] was 6.2 µg/mL (≈ 7.43 µM) and the MIC [18] was > 100 µg/mL. The MIC [19] was > 100 µg/mL, the MIC [20] was > 100 µg/mL and the MIC [21] was > 100 µg/mL. The MIC [22] was > 100 µg/mL, the MIC [23] was > 100 µg/mL and the MIC [24] was > 100 µg/mL. For the same molecule, the MIC [25] was > 100 µg/mL, the MIC [26] was > 100 µg/mL and the MIC [27] was 12.5 µg/mL (≈ 15 µM). The MIC [28] was > 100 µg/mL, the MIC [29] was > 100 µg/mL and the MIC [30] was > 100 µg/mL. The MIC [31] was > 100 µg/mL, the MIC [32] was 50 µg/mL (≈ 59.9 µM) and the MIC [33] was 1.56 µg/mL (≈ 1.87 µM).

For `CC[C@H]1OC(=O)[C@H](C)C(=O)[C@H](C)[C@@H](O[C@@H]2O[C@H](C)C[C@H](N(C)C)[C@H]2O)[C@](C)(OC)C[C@@H](C)C2=N[C@H](COCc3ccccc3Cl)CN3C(=O)O[C@@]1(C)[C@H]3[C@H]2C` [Example 78], the MIC [1] was 0.39 µg/mL (≈ 0.492 µM), the MIC [3] was 100 µg/mL (≈ 126 µM) and the MIC [4] was 0.78 µg/mL (≈ 0.984 µM). It also gave an MIC [5] of 0.39 µg/mL (≈ 0.492 µM), an MIC [6] of 0.78 µg/mL (≈ 0.984 µM) and an MIC [7] of 100 µg/mL (≈ 126 µM). The MIC [8] was 0.39 µg/mL (≈ 0.492 µM), the MIC [9] was 0.05 µg/mL (≈ 0.0631 µM) and the MIC [10] was 0.39 µg/mL (≈ 0.492 µM). For the same molecule, the MIC [11] was 0.02 µg/mL (≈ 0.0252 µM), the MIC [12] was ≤ 0.005 µg/mL and the MIC [13] was ≤ 0.005 µg/mL. For the same molecule, the MIC [14] was ≤ 0.005 µg/mL, the MIC [15] was 25 µg/mL (≈ 31.5 µM) and the MIC [16] was 0.2 µg/mL (≈ 0.252 µM). For the same molecule, the MIC [34] was > 100 µg/mL, the MIC [17] was 1.56 µg/mL (≈ 1.97 µM) and the MIC [18] was > 100 µg/mL. For the same molecule, the MIC [19] was > 100 µg/mL, the MIC [20] was > 100 µg/mL and the MIC [21] was > 100 µg/mL. For the same molecule, the MIC [22] was > 100 µg/mL, the MIC [23] was > 100 µg/mL and the MIC [24] was > 100 µg/mL. For the same molecule, the MIC [25] was > 100 µg/mL, the MIC [26] was > 100 µg/mL and the MIC [27] was 3.1 µg/mL (≈ 3.91 µM). The MIC [28] was > 100 µg/mL, the MIC [29] was 100 µg/mL (≈ 126 µM) and the MIC [30] was > 100 µg/mL. The MIC [31] was > 100 µg/mL, the MIC [32] was 100 µg/mL (≈ 126 µM) and the MIC [33] was 0.78 µg/mL (≈ 0.984 µM).

With `CC[C@H]1OC(=O)[C@H](C)C(=O)[C@H](C)[C@@H](O[C@@H]2O[C@H](C)C[C@H](N(C)C)[C@H]2O)[C@](C)(OC)C[C@@H](C)C2=N[C@H](COCc3ccc(Cl)cc3)CN3C(=O)O[C@@]1(C)[C@H]3[C@H]2C` [Example 79] the MIC [1] was 0.39 µg/mL (≈ 0.492 µM), the MIC [3] was 100 µg/mL (≈ 126 µM) and the MIC [4] was 0.39 µg/mL (≈ 0.492 µM). It also gave an MIC [5] of 0.39 µg/mL (≈ 0.492 µM), an MIC [6] of 0.39 µg/mL (≈ 0.492 µM) and an MIC [7] of 100 µg/mL (≈ 126 µM). The MIC [8] was 0.39 µg/mL (≈ 0.492 µM), the MIC [9] was 0.1 µg/mL (≈ 0.126 µM) and the MIC [10] was 0.39 µg/mL (≈ 0.492 µM). For the same molecule, the MIC [11] was 0.05 µg/mL (≈ 0.0631 µM), the MIC [12] was ≤ 0.005 µg/mL and the MIC [13] was 0.01 µg/mL (≈ 0.0126 µM). For the same molecule, the MIC [14] was 0.01 µg/mL (≈ 0.0126 µM), the MIC [15] was 50 µg/mL (≈ 63.1 µM) and the MIC [16] was 0.39 µg/mL (≈ 0.492 µM). The MIC [34] was > 100 µg/mL, the MIC [17] was 1.56 µg/mL (≈ 1.97 µM) and the MIC [18] was > 100 µg/mL. The MIC [19] was > 100 µg/mL, the MIC [20] was > 100 µg/mL and the MIC [21] was > 100 µg/mL. The MIC [22] was > 100 µg/mL, the MIC [23] was > 100 µg/mL and the MIC [24] was > 100 µg/mL. The MIC [25] was > 100 µg/mL, the MIC [26] was > 100 µg/mL and the MIC [27] was 3.1 µg/mL (≈ 3.91 µM). The MIC [28] was 100 µg/mL (≈ 126 µM), the MIC [29] was 100 µg/mL (≈ 126 µM) and the MIC [30] was > 100 µg/mL. The MIC [31] was > 100 µg/mL, the MIC [32] was 100 µg/mL (≈ 126 µM) and the MIC [33] was 0.78 µg/mL (≈ 0.984 µM).
